Measurements: patent publication US20230393140A1, “BINDING ASSAYS INVOLVING A PLURALITY OF SYNTHETIC COMPOUNDS, TARGETS, AND COUNTER TARGETS” (SRI International, priority 2020, published 2023)
Numbered stars: 1 amine (or outer) side, 2 acyl side, 3 side chain; on linkers, the order of the positions; unused ones are H or OH. Square brackets hold non-standard residues; d marks the D form. Peptide text beside a SMILES is read from it. * marks the point of attachment. 5FAM = O=C1OC2(c3ccc(O)cc3Oc3cc(O)ccc32)c2ccc(C(=O)*)cc21; NHCH2C6H4(4-CH2CONH2) = NC(=O)Cc1ccc(CN*)cc1; X1 = O=C(Cc1ccc(CN[*:1])cc1)[*:2]

Target: TNFα (Homo sapiens, UniProt P01375)
Sequence (P01375 77-233 limits assumed): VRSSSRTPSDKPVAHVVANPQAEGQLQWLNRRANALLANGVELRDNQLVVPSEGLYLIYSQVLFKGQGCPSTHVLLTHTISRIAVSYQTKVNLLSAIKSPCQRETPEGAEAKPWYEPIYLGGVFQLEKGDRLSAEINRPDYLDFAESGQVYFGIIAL
Experiment: MST binding affinity of resynthesized NNP hits to TNFα
Parameters: purchased R&D Systems, Inc. 210-TA/CF
Conditions: read-out: KD (nM) [95% conf. int], NNP2 library hit, target TNFα, one-site binding model
Procedure: Hit binding affinity to various targets were determined using Microscale Thermophoresis (MST). MST experiments were performed on a Monolith NT.115pico (NanoTemper Technologies GmbH, Munich, Germany). Measurements were performed at room temperature, in triplicate with incubation periods of 15, 30 and 45 minutes. […] Targets were labeled using Nanotemper Monolith 2nd Generation Protein Labeling Kits. RED-MALEIMIDE (Maleimide-647-dye) labeling kit was used for K-Ras and RED-NHS (NHS-647-dye) labeling kit was used for IL-6, IL-6R, TNFα and ASGPR. The buffer for the ASGPR contained 20 mM HEPES pH 7.4, 150 mM NaCl, 10 mM MgCl2, 2 mM CaCl2, 0.05% Pluronic F-127, and 1 mM DTT; for IL-6 contained 20 mM HEPES pH 7.4, 150 mM KCl, 10 mM MgCl2, and 0.1% Pluronic F-127; for the soluble IL-6 receptor 20 mM HEPES pH 7.4, 150 mM NaCl, 10 mM MgCl2, and 0.05% Tween-20; for K-Ras 20 mM HEPES pH 7.4, 150 mM NaCl, 10 mM MgCl2, 0.05% Tween-20 and 1 mM DTT; for TNFα 10 mM HEPES pH 7.4, 150 mM NaCl, 10 mM MgCl2, 0.05% Polysorbate-20. Triplicate data was analyzed using MO.AffinityAnalysis software (NanoTemper Technologies GmbH).

**Q.** `CC(C)C[C@H](NC(=O)[C@@H](CCCNC(=N)N)NC(=O)[C@@H](C)NC(=O)Cc1ccc(CNC(=O)[C@H](Cc2ccccc2)NC(=O)[C@@H](CCCNC(=N)N)NC(=O)[C@@H](CC(N)=O)NC(=O)Cc2ccc(CNC(=O)[C@H](Cc3ccccc3)NC(=O)[C@@H](CCCCN)NC(=O)[C@@H](C)NC(=O)Cc3ccc(CNC(=O)[C@H](C)NC(=O)[C@@H](CCCNC(=N)N)NC(=O)[C@@H](Cc4ccccc4)NC(=O)Cc4ccc(CNC(=O)[C@H](CC(C)C)NC(=O)[C@@H](CCCCN)NC(=O)[C@@H](CC(C)C)NC(=O)Cc5ccc(CNC(=O)[C@H](CC(C)C)NC(=O)[C@@H](CCCNC(=N)N)NC(=O)[C@@H](CC(C)C)NC(=O)Cc6ccc(CNC(=O)[C@H](CC(C)C)NC(=O)[C@@H](CC(C)C)NC(=O)[C@@H](Cc7ccc(O)cc7)NC(=O)c7ccc8c(c7)C(=O)OC87c8ccc(O)cc8Oc8cc(O)ccc87)cc6)cc5)cc4)cc3)cc2)cc1)C(=O)NCc1ccc(CC(=O)N[C@H](Cc2c[nH]c3ccccc23)C(=O)N[C@H](CCCCN)C(=O)N[C@@H](CC(C)C)C(=O)NCc2ccc(CC(=O)N3CCC[C@@H]3C(=O)N[C@H](C)C(=O)N[C@@H](C)C(=O)NCc3ccc(CC(N)=O)cc3)cc2)cc1` [TNF-31-14] (5FAM-[dY][dL]L[X1][dL][dR]L[X1][dL][dK]L[X1][dF][dR]A[X1][dA][dK]F[X1][dN][dR]F[X1][dA][dR]L[X1][dW][dK]L[X1][dP][dA]A-{NHCH2C6H4(4-CH2CONH2)}) was tested. Which Kd did it give?
**A.** 35 nM

**Q.** With `CC(C)C[C@H](NC(=O)[C@@H](CCCNC(=N)N)NC(=O)[C@@H](CCC(=O)O)NC(=O)Cc1ccc(CNC(=O)[C@H](C)NC(=O)[C@@H](CCCCN)NC(=O)[C@@H](Cc2ccc(O)cc2)NC(=O)Cc2ccc(CNC(=O)[C@H](C)NC(=O)[C@@H](CCCNC(=N)N)NC(=O)[C@@H](Cc3ccccc3)NC(=O)Cc3ccc(CNC(=O)[C@H](CC(C)C)NC(=O)[C@H](NC(=O)[C@@H](CCCNC(=N)N)NC(=O)Cc4ccc(CNC(=O)[C@H](CC(C)C)NC(=O)[C@@H](CCCNC(=N)N)NC(=O)[C@@H](CC(C)C)NC(=O)Cc5ccc(CNC(=O)[C@H](CC(C)C)NC(=O)[C@H](NC(=O)[C@@H](CCCCN)NC(=O)c6ccc7c(c6)C(=O)OC76c7ccc(O)cc7Oc7cc(O)ccc76)C(C)C)cc5)cc4)C(C)C)cc3)cc2)cc1)C(=O)NCc1ccc(CC(=O)N2CCC[C@@H]2C(=O)N[C@@H](C(=O)NCC(=O)NCc2ccc(CC(=O)N[C@H](CCCCN)C(=O)N[C@H](Cc3ccccc3)C(=O)N[C@@H](Cc3ccccc3)C(=O)NCc3ccc(CC(=O)N[C@H](Cc4c[nH]cn4)C(=O)N[C@H](CCC(=O)O)C(=O)N[C@H](C(=O)NCc4ccc(CC(N)=O)cc4)C(C)C)cc3)cc2)C(C)C)cc1` [TNF-31-15] (5FAM-[dK][dV]L[X1][dL][dR]L[X1][dR][dV]L[X1][dF][dR]A[X1][dY][dK]A[X1][dE][dR]L[X1][dP][dV]G[X1][dK][dF]F[X1][dH][dE]V-{NHCH2C6H4(4-CH2CONH2)}) as the compound, how does the Kd read?
**A.** 23 nM

**Q.** For `CC(C)C[C@H](NC(=O)[C@@H](CCC(=O)O)NC(=O)[C@H]1CCCN1C(=O)Cc1ccc(CNC(=O)[C@H](CC(C)C)NC(=O)[C@@H](CCCCN)NC(=O)[C@@H](Cc2ccccc2)NC(=O)Cc2ccc(CNC(=O)[C@@H](NC(=O)[C@@H](CCC(=O)O)NC(=O)[C@@H](Cc3ccccc3)NC(=O)Cc3ccc(CNC(=O)[C@H](CC(C)C)NC(=O)[C@@H](CCCNC(=N)N)NC(=O)[C@@H](CC(C)C)NC(=O)Cc4ccc(CNC(=O)[C@H](CC(C)C)NC(=O)[C@H](NC(=O)[C@@H](CCCCN)NC(=O)c5ccc6c(c5)C(=O)OC65c6ccc(O)cc6Oc6cc(O)ccc65)C(C)C)cc4)cc3)C(C)C)cc2)cc1)C(=O)NCc1ccc(CC(=O)N[C@H](Cc2ccccc2)C(=O)N[C@@H](C(=O)N[C@@H](C)C(=O)NCc2ccc(CC(=O)N[C@H](Cc3c[nH]cn3)C(=O)N[C@H](CCC(=O)O)C(=O)N[C@@H](CC(C)C)C(=O)NCc3ccc(CC(=O)N[C@H](CCC(=O)O)C(=O)N[C@H](Cc4ccc(O)cc4)C(=O)N[C@@H](Cc4ccccc4)C(=O)NCc4ccc(CC(=O)N[C@@H](C(=O)N[C@H](CO)C(=O)N[C@H](C(=O)NCc5ccc(CC(N)=O)cc5)C(C)C)[C@H](C)O)cc4)cc3)cc2)[C@H](C)O)cc1` [TNF-31-16] (5FAM-[dK][dV]L[X1][dL][dR]L[X1][dF][dE]V[X1][dF][dK]L[X1][dP][dE]L[X1][dF][dT]A[X1][dH][dE]L[X1][dE][dY]F[X1][dT][dS]V-{NHCH2C6H4(4-CH2CONH2)}), which Kd is on record?
**A.** 180 nM

**Q.** How did the Kd turn out when `CC(C)C[C@H](NC(=O)[C@@H](CCCNC(=N)N)NC(=O)[C@@H](CC(C)C)NC(=O)Cc1ccc(CNC(=O)[C@H](CC(C)C)NC(=O)[C@H](NC(=O)[C@@H](CCCCN)NC(=O)c2ccc3c(c2)C(=O)OC32c3ccc(O)cc3Oc3cc(O)ccc32)C(C)C)cc1)C(=O)NCc1ccc(CC(=O)N[C@H](CCCNC(=N)N)C(=O)N[C@@H](C(=O)N[C@@H](CC(C)C)C(=O)NCc2ccc(CC(=O)N[C@H](Cc3ccccc3)C(=O)N[C@H](CCCNC(=N)N)C(=O)N[C@@H](C)C(=O)NCc3ccc(CC(=O)N[C@H](C)C(=O)N[C@H](CCCCN)C(=O)N[C@@H](Cc4ccccc4)C(=O)NCc4ccc(CC(=O)N[C@H](CC(N)=O)C(=O)N[C@H](CCCNC(=N)N)C(=O)N[C@@H](Cc5ccccc5)C(=O)NCc5ccc(CC(=O)N6CCC[C@@H]6C(=O)N[C@@H](C(=O)NCC(=O)NCc6ccc(CC(=O)N[C@H](CCC(=O)O)C(=O)N[C@H](CCCNC(=N)N)C(=O)N[C@H](C(=O)NCc7ccc(CC(=O)N[C@H](Cc8ccc(O)cc8)C(=O)N[C@H](CCCNC(=N)N)C(=O)N[C@@H](Cc8ccccc8)C(=O)NCc8ccc(CC(N)=O)cc8)cc7)C(C)C)cc6)C(C)C)cc5)cc4)cc3)cc2)C(C)C)cc1` [TNF-39-1] (5FAM-[dK][dV]L[X1][dL][dR]L[X1][dR][dV]L[X1][dF][dR]A[X1][dA][dK]F[X1][dN][dR]F[X1][dP][dV]G[X1][dE][dR]V[X1][dY][dR]F-{NHCH2C6H4(4-CH2CONH2)}) was run?
**A.** 116 nM

**Q.** With `CC(C)C[C@H](NC(=O)[C@@H](CCCNC(=N)N)NC(=O)CNC(=O)Cc1ccc(CNC(=O)[C@H](CC(C)C)NC(=O)[C@@H](CC(C)C)NC(=O)[C@@H](Cc2ccc(O)cc2)NC(=O)c2ccc3c(c2)C(=O)OC32c3ccc(O)cc3Oc3cc(O)ccc32)cc1)C(=O)NCc1ccc(CC(=O)N[C@H](Cc2ccccc2)C(=O)N[C@H](CCC(=O)O)C(=O)N[C@H](C(=O)NCc2ccc(CC(=O)N[C@H](Cc3c[nH]c4ccccc34)C(=O)N[C@H](CCCNC(=N)N)C(=O)N[C@@H](CC(C)C)C(=O)NCc3ccc(CC(=O)N[C@H](Cc4c[nH]c5ccccc45)C(=O)N[C@H](CCCNC(=N)N)C(=O)N[C@H](C(=O)NCc4ccc(CC(=O)N[C@H](CCCNC(=N)N)C(=O)N[C@H](Cc5ccc(O)cc5)C(=O)N[C@@H](CC(C)C)C(=O)NCc5ccc(CC(=O)N6CCC[C@@H]6C(=O)NCC(=O)N[C@H](C(=O)NCc6ccc(CC(=O)N[C@H](Cc7c[nH]cn7)C(=O)N[C@H](CO)C(=O)N[C@@H](CC(C)C)C(=O)NCc7ccc(CC(=O)N[C@H](Cc8ccccc8)C(=O)N[C@H](CCCCN)C(=O)NCC(=O)NCc8ccc(CC(N)=O)cc8)cc7)cc6)C(C)C)cc5)cc4)C(C)C)cc3)cc2)C(C)C)cc1` [TNF-39-2] (5FAM-[dY][dL]L[X1]G[dR]L[X1][dF][dE]V[X1][dW][dR]L[X1][dW][dR]V[X1][dR][dY]L[X1][dP]GV[X1][dH][dS]L[X1][dF][dK]G-{NHCH2C6H4(4-CH2CONH2)}) as the compound, how does the Kd read?
**A.** 200 nM

**Q.** How did the Kd turn out when `CC(C)C[C@H](NC(=O)[C@@H](CCCCN)NC(=O)[C@@H](Cc1c[nH]c2ccccc12)NC(=O)Cc1ccc(CNC(=O)[C@@H](NC(=O)CNC(=O)[C@H]2CCCN2C(=O)Cc2ccc(CNC(=O)[C@H](CC(C)C)NC(=O)[C@@H](Cc3ccc(O)cc3)NC(=O)[C@@H](CCCNC(=N)N)NC(=O)Cc3ccc(CNC(=O)[C@H](Cc4ccccc4)NC(=O)[C@@H](CCCCN)NC(=O)[C@@H](C)NC(=O)Cc4ccc(CNC(=O)[C@H](C)NC(=O)[C@@H](CCCNC(=N)N)NC(=O)[C@@H](Cc5ccccc5)NC(=O)Cc5ccc(CNC(=O)[C@@H](NC(=O)[C@@H](CCC(=O)O)NC(=O)[C@@H](Cc6ccccc6)NC(=O)Cc6ccc(CNC(=O)[C@H](CC(C)C)NC(=O)[C@@H](CCCNC(=N)N)NC(=O)[C@@H](CC(C)C)NC(=O)Cc7ccc(CNC(=O)[C@H](Cc8ccccc8)NC(=O)[C@@H](CC(C)C)NC(=O)[C@H](NC(=O)c8ccc9c(c8)C(=O)OC98c9ccc(O)cc9Oc9cc(O)ccc98)[C@H](C)O)cc7)cc6)C(C)C)cc5)cc4)cc3)cc2)C(C)C)cc1)C(=O)NCc1ccc(CC(=O)N[C@H](Cc2ccc(O)cc2)C(=O)N[C@H](CCCNC(=N)N)C(=O)N[C@@H](Cc2ccccc2)C(=O)NCc2ccc(CC(N)=O)cc2)cc1` [TNF-39-3] (5FAM-[dT][dL]F[X1][dL][dR]L[X1][dF][dE]V[X1][dF][dR]A[X1][dA][dK]F[X1][dR][dY]L[X1][dP]GV[X1][dW][dK]L[X1][dY][dR]F-{NHCH2C6H4(4-CH2CONH2)}) was run?
**A.** 130 nM
